Assay results published in paper PMC12112332, “Characterization of Novel and Known Activators of Cannabinoid Receptor Subtype 2 Reveals Mixed Pharmacology That Differentiates Mycophenolate Mofetil and GW-842,166X from MDA7” (International Journal of Molecular Sciences, 2025).
Like-named read-outs stand apart in the source and are kept apart here.

Assays:
[1] = target: T1, rCB1 (Rattus norvegicus, UniProt P20272); assay: Thallium flux assay in HEK/GIRK cells expressing rCB1; format: cell-based; details: for rCB1 GIRK (−) 2-AG % Max ± SEM / rCB1 GIRK (+) 2-AG % Max ± SEM: % of maximal 2-AG response
T1 construct: expressed in transfected cells; host or cells: HEK293 cells stably co-expressing GIRK channels
Procedure: The cell lines used in this manuscript were generated in-house. Their preparation is described in detail in Qi et al.. Cells were used for 10 passages for experiments and day-to-day signals in both the CB2 and CB1 lines were stable across this passage number. Human Embryonic Kidney (HEK) 293 cells stably expressing rCB2 and the G protein Gqi9 were maintained in Dulbecco’s modified Eagle media (DMEM) containing 10% FBS, 1× antibiotic/antimycotic, 20 mM HEPES, 1 mM sodium pyruvate, 2 mM L-glutamine, 1× non-essential amino acids, 700 µg/mL G418 sulfate, and 0.6 µg/mL puromycin. HEK cells stably expressing rCB2 or rCB1 and the G protein inwardly rectifying potassium channel (GIRK) were maintained in DMEM/F12 containing 10% FBS, 1× antibiotic/antimycotic, 20 mM HEPES, 1 mM sodium pyruvate, 2 mM L-glutamine, 1× non-essential amino acids, 700 µg/mL G418 sulfate, and 0.6 µg/mL puromycin. Cells were monitored by periodic PCR detection using the LookOut Mycoplasma PCR Detection Kit (Sigma-Aldrich, St Louis, MO, USA) to eliminate potential mycoplasma infection. Reagents were obtained from Invitrogen (Waltham, MA, USA) unless otherwise noted.
Thallium flux assays were performed as previously described in Niswender et al., 2008 [31]. HEK/GIRK cells stably expressing rCB1 or rCB2 (15,000 cells/20 µL/well) were seeded in 384-well, poly-D-lysine coated assay plates (Corning BioCoat®) (Corning Inc., Corning, NY, USA) and incubated overnight at 37 °C in the presence of 5% CO2. The next day, the medium was removed and replaced with 20 μL of 1.2 µM thallium-sensitive dye Thallos-AM (ION biosciences, San Marcos, TX, USA), prepared as a DMSO stock solution mixed in a 1:1 ratio with 10% (w/v) pluronic acid F-127, and diluted in assay buffer (Hank’s balanced salt solution, 20 mM HEPES, pH 7.4). Following 1 h at room temperature, the dye solution was removed and replaced with 20 µL assay buffer. For screening of the FDA-Approved Drug Collection, 10 mM DMSO stocks of library compounds were transferred to daughter plates using an Echo acoustic plate reformatter (Labcyte, Sunnyvale, CA, USA) and diluted in assay buffer to a 2× final concentration. For concentration–response curve experiments, compounds were serially diluted 1:3 into 10-point concentration–response curves in DMSO, transferred to daughter plates using the Echo or Bravo Automated Liquid Handling Platform (Agilent Technologies, Santa Clara, CA, USA), and diluted in assay buffer to a 2× final concentration. Thallium flux was measured using the Hamamatsu FDSS/μCELL Kinetic Plate Imager (Bridgewater, NJ, USA). After the establishment of a fluorescence baseline (excitation, 480 ± 20 nm; emission, 540 ± 30 nm), 20 µL (2×) of test compound was added to the cells at 1 s and the response was measured. After 140 s, 10 µL (5×) of an EC20 concentration of agonist (PAM mode) or vehicle (AGO mode) in thallium stimulus buffer (125 mM NaHCO3, 1.8 mM CaSO4, 1 mM MgSO4, 5 mM glucose, 12 mM Tl2SO4, 10 mM HEPES, 0.5% BSA, pH 7.4) was added to the cells, and the response of the cells was measured for an additional 159 s (data were acquired for 300 s total at 0.5 Hz for 140 s and 1 Hz for 160 s). Raw kinetic data were analyzed in a multi-step process: (1) Fluorescence readings for each time point in a well were divided by the fluorescence reading at the initial time point to account for differences in cell number, non-uniform illumination, and dye-loading. (2) The slope value for each kinetic trace was calculated for the time window of 145–155 s, a window occurring directly after the second addition. (3) The average slope was calculated for wells containing vehicle and this value was subtracted from all wells. (4) The vehicle-subtracted slope was normalized to the relevant maximal agonist signal for each assay. […]

[2] = target: T2, rat CB2 (Rattus norvegicus, UniProt Q9QZN9); assay: [3H]CP55,940 radioligand competition binding, membranes of HEK/GIRK cells expressing rat CB2; design: expressed in transfected cells; host or cells: HEK293 cells stably co-expressing GIRK1/2 channels; details: for rCB2 Binding Affinity pKi ± SEM: 0.5 nM [3H]CP55,940, equilibrium; for rCB2 Binding % Max ± SEM: % of specific [3H]CP55,940 binding
T2 sequence (Q9QZN9 1-360): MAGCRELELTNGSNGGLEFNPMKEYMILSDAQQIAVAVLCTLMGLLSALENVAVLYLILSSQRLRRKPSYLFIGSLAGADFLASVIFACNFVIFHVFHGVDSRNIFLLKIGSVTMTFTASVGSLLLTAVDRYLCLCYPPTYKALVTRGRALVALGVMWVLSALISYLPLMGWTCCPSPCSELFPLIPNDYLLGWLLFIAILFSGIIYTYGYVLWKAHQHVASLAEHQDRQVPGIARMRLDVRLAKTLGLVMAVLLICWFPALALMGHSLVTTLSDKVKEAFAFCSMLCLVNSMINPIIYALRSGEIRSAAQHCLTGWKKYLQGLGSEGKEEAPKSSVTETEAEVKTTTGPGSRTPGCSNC
Source text: Agonists that bind to the receptor at the site occupied by the endogenous ligand (2-AG in this case) are considered orthosteric agonists. It is also possible for an agonist to bind and activate a receptor via a site other than the orthosteric site; these ligands are classified as allosteric agonists. To characterize the nature of the agonist activity of mycophenolate mofetil, we tested its ability to bind to the receptor in equilibrium binding assays using membranes harvested from cells expressing rCB2 using the radioligand [^3H]CP55,940 [40, 60]. CP55,940 has an affinity for both CB1 and CB2 receptors in the low nM range and is reported to bind to the site occupied by 2-AG [61].
Competition binding concentration–response curves were obtained in the presence of 0.5 nM [^3H]CP55,940 using membranes harvested from HEK/GIRK cells expressing rCB2. Data represent the mean ± SEM of three independent experiments run in triplicate. Data are plotted as a percentage of specific [^3H]CP55,940 binding. Non-specific binding was determined in the presence of 10 µM CP55,940.
Membranes were made from HEK/GIRK cells stably expressing rat CB2. Radioligand competition binding assays were performed as previously described, with minor modifications. In brief, compounds were serially diluted into assay buffer with 0.1% bovine serum albumin (BSA) and added to each well of a 96-well plate, along with 20 μg/well cell membrane and approximately 500 pM [^3H]-CP55,940 (specific activity = 104 Ci/mmol, PerkinElmer, Waltham, MA, USA). Following a 3-h incubation period on a shaker at room temperature, membrane-bound ligand was separated from free ligand by filtration through glass fiber 96-well filter plates (Unifilter-96, GF/B; PerkinElmer, Waltham, MA, USA). Forty microliters of scintillation fluid were added to each well, and membrane-bound radioactivity was determined by scintillation counting (Microbeta2; Revvity, Waltham, MA, USA). Nonspecific binding was determined using 10 μM of cold CP55,940.

T1 sequence (P20272 whole entry): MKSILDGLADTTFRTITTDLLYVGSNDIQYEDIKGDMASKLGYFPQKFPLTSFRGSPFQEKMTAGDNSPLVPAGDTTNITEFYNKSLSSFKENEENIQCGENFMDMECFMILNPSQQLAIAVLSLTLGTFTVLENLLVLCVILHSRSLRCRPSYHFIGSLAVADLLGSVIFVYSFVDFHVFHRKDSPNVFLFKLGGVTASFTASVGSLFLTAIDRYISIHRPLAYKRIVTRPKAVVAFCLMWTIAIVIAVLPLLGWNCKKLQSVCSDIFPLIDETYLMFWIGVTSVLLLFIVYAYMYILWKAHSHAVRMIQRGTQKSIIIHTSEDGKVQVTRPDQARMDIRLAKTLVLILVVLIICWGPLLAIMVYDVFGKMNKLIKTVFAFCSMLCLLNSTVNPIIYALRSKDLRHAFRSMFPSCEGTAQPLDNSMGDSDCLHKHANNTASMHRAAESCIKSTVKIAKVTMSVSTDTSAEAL

rCB1 GIRK (+) 2-AG pEC50 ± SEM ([1]; presence of EC20 2-AG) | EC50 ([1]; presence of EC20 2-AG, read-out: rCB1 GIRK (+) 2-AG pEC50 ± SEM (converted)) | EC50 ([2]; 0.5 nM [3H]CP55,940, tested up to 30 µM, read-out: rCB2 Binding pEC50 (incomplete displacement) (converted)) | Structure (SMILES) | rCB1 GIRK (−) 2-AG pEC50 ± SEM ([1]; absence of 2-AG) | EC50 [2] | rCB2 Binding Affinity pKi ± SEM [2] | rCB2 Binding % Max ± SEM ([2]; 0.5 nM [3H]CP55,940) | rCB1 GIRK (−) 2-AG % Max ± SEM ([1]; absence of 2-AG) | rCB1 GIRK (+) 2-AG % Max ± SEM ([1]; presence of EC20 2-AG) | EC50 ([1]; rCB1 GIRK EC50 in absence of 2-AG, absence of 2-AG) | EC50 ([1]; rCB1 GIRK EC50 in presence of 2-AG, presence of EC20 2-AG) | Ki [2]
– | – | – | CC1(Cc2ccccc2)COc2cc(C(=O)N3CCCCC3)ccc21 (centres unmarked) [MDA7, 1-[(3-benzyl-3-methyl-2,3-dihydro-1-benzofuran-6-yl)carbonyl]piperidine] | – | – | – | 5.3 ± 1.7% | 50 ± 2% | 48 ± 2% | 0.477 µM | 0.395 µM | 0.251 µM
< 5.0 | > 10 µM | > 10 µM | COc1c(C)c2c(c(O)c1C/C=C(\C)CCC(=O)OCCN1CCOCC1)C(=O)OC2 [Mycophenolate mofetil] | < 5.0 | – | Incomplete | 20 ± 1% | −15 ± 3% | −5.5 ± 1.1% | – | – | –
Inactive | – | – | COc1c(C)c2c(c(O)c1C/C=C(\C)CCC(=O)O)C(=O)OC2 [Mycophenolic acid] | – | – | – | – | – | – | – | – | –

Structure (SMILES) | rCB1 GIRK (+) 2-AG pEC50 ± SEM ([1]; presence of EC20 2-AG) | EC50 ([1]; presence of EC20 2-AG, read-out: rCB1 GIRK (+) 2-AG pEC50 ± SEM (converted)) | EC50 ([2]; 0.5 nM [3H]CP55,940, tested up to 30 µM, read-out: rCB2 Binding pEC50 (incomplete displacement) (converted)) | rCB1 GIRK (−) 2-AG pEC50 ± SEM ([1]; absence of 2-AG) | EC50 [2] | rCB2 Binding Affinity pKi ± SEM [2] | rCB2 Binding % Max ± SEM ([2]; 0.5 nM [3H]CP55,940) | rCB1 GIRK (−) 2-AG % Max ± SEM ([1]; absence of 2-AG) | rCB1 GIRK (+) 2-AG % Max ± SEM ([1]; presence of EC20 2-AG) | EC50 ([1]; rCB1 GIRK EC50 in absence of 2-AG, absence of 2-AG) | EC50 ([1]; rCB1 GIRK EC50 in presence of 2-AG, presence of EC20 2-AG) | Ki [2]
O=C(NCC1CCOCC1)c1cnc(Nc2ccc(Cl)cc2Cl)nc1C(F)(F)F [GW-842,166X, 2-(2,4-dichloroanilino)-N-(oxan-4-ylmethyl)-4-(trifluoromethyl)pyrimidine-5-carboxamide] | Inactive | – | – | Inactive | > 10 µM | Incomplete | 22 ± 2% | – | – | – | – | –
